Assay: xn = mol fraction of the nth substance listed
Conditions: 101 kPa, Liquid

COc1cc2c(cc1O)CC1c3c(cc(O)c(OC)c3-2)CCN1C (stereo unspecified) [boldine] + CC(C)O
mass density [kg/m3]
Conditions	x1 = 0.00187	x1 = 0.00371	x1 = 0.00563	x1 = 0.00735	x1 = 0.00957	x1 = 0.01158	x1 = 0.01364
283.15 K	796.84	800.29	803.77	807.03	810.42	814.44	818.2
288.15 K	792.75	796.21	799.68	802.94	806.37	810.34	814.09
293.15 K	788.61	792.06	795.53	798.79	802.25	806.19	809.91
298.15 K	784.39	787.84	791.32	794.57	798.05	801.97	805.66
303.15 K	780.11	783.56	787.04	790.29	793.78	797.69	801.36
308.15 K	775.77	779.22	782.69	785.94	789.45	793.35	797.01
313.15 K	771.34	774.79	778.25	781.51	785.03	788.91	792.59
318.15 K	766.8	770.26	773.72	776.98	780.51	784.38	788.09
323.15 K	762.17	765.62	769.08	772.35	775.88	779.76	783.56
328.15 K	757.42	760.87	764.34	767.61	771.14	775.02	778.85
333.15 K	752.55	756.01	759.48	762.75	766.27	770.17	773.99

COc1cc2c(cc1O)CC1c3c(cc(O)c(OC)c3-2)CCN1C (stereo unspecified) [boldine] + CCCCCCCCO
mass density [kg/m3]
Conditions	x1 = 0.00398	x1 = 0.00806	x1 = 0.01216
283.15 K	835.34	838.57	842.06
288.15 K	831.91	835.14	838.62
293.15 K	828.46	831.68	835.16
298.15 K	825	828.21	831.68
303.15 K	821.52	824.72	828.18
308.15 K	818.01	821.21	824.66
313.15 K	814.49	817.68	821.12
318.15 K	810.93	814.12	817.55
323.15 K	807.34	810.52	813.96
328.15 K	803.73	806.9	810.33
333.15 K	800.08	803.24	806.66

COc1cc2c(cc1O)CC1c3c(cc(O)c(OC)c3-2)CCN1C (stereo unspecified) [boldine] + CCCCCCO
mass density [kg/m3]
Conditions	x1 = 0.00308	x1 = 0.00633	x1 = 0.00958
283.15 K	831.02	834.31	837.66
288.15 K	827.44	830.73	834.07
293.15 K	823.83	827.12	830.46
298.15 K	820.21	823.49	826.82
303.15 K	816.56	819.84	823.16
308.15 K	812.88	816.16	819.48
313.15 K	809.17	812.44	815.76
318.15 K	805.43	808.7	812.01
323.15 K	801.65	804.91	808.22
328.15 K	797.83	801.09	804.39
333.15 K	793.97	797.22	800.51

COc1cc2c(cc1O)CC1c3c(cc(O)c(OC)c3-2)CCN1C (stereo unspecified) [boldine] + CCCCCO
mass density [kg/m3]
Conditions	x1 = 0.00272	x1 = 0.00547	x1 = 0.00826
283.15 K	825.74	829.04	832.39
288.15 K	822.11	825.4	828.75
293.15 K	818.44	821.73	825.07
298.15 K	814.76	818.04	821.37
303.15 K	811.05	814.33	817.65
308.15 K	807.31	810.58	813.91
313.15 K	803.53	806.8	810.12
318.15 K	799.72	802.99	806.31
323.15 K	795.87	799.13	802.45
328.15 K	791.97	795.23	798.54
333.15 K	788.02	791.28	794.59

COc1cc2c(cc1O)CC1c3c(cc(O)c(OC)c3-2)CCN1C (stereo unspecified) [boldine] + CCCCO
mass density [kg/m3]
Conditions	x1 = 0.00228	x1 = 0.00461	x1 = 0.00696	x1 = 0.00936	x1 = 0.01178	x1 = 0.01427	x1 = 0.01678
283.15 K	820.49	823.85	827.2	830.57	833.94	837.36	840.79
288.15 K	816.73	820.08	823.43	826.79	830.16	833.57	837
293.15 K	812.93	816.28	819.62	822.98	826.35	829.75	833.18
298.15 K	809.11	812.45	815.8	819.15	822.52	825.92	829.34
303.15 K	805.26	808.6	811.94	815.29	818.66	822.06	825.48
308.15 K	801.39	804.72	808.06	811.4	814.77	818.16	821.58
313.15 K	797.47	800.81	804.14	807.48	810.84	814.23	817.64
318.15 K	793.52	796.85	800.17	803.52	806.87	810.25	813.67
323.15 K	789.52	792.84	796.17	799.51	802.86	806.23	809.66
328.15 K	785.47	788.79	792.11	795.45	798.79	802.17	805.59
333.15 K	781.35	784.67	787.99	791.32	794.67	798.05	801.46

COc1cc2c(cc1O)CC1c3c(cc(O)c(OC)c3-2)CCN1C (stereo unspecified) [boldine] + CCCO
mass density [kg/m3]
Conditions	x1 = 0.00185	x1 = 0.00374	x1 = 0.00565	x1 = 0.0076	x1 = 0.00957	x1 = 0.01158	x1 = 0.01361
283.15 K	814.99	818.36	821.77	825.23	828.61	832.08	835.59
288.15 K	811.04	814.41	817.81	821.26	824.65	828.12	831.61
293.15 K	807.05	810.42	813.82	817.26	820.65	824.12	827.61
298.15 K	803.04	806.4	809.8	813.24	816.64	820.1	823.59
303.15 K	799	802.35	805.75	809.2	812.59	816.05	819.54
308.15 K	794.92	798.27	801.67	805.12	808.5	811.96	815.45
313.15 K	790.81	794.14	797.55	800.98	804.37	807.83	811.31
318.15 K	786.65	789.98	793.39	796.82	800.21	803.65	807.13
323.15 K	782.43	785.77	789.17	792.6	795.99	799.42	802.91
328.15 K	778.16	781.5	784.89	788.33	791.71	795.16	798.63
333.15 K	773.81	777.16	780.54	783.99	787.37	790.82	794.3

CCCCO [butan-1-ol] + COc1cc2c(cc1O)CC1c3c(cc(O)c(OC)c3-2)CCN1C
x2 = 0
Conditions	mass density [kg/m3]
283.15 K	817.15
288.15 K	813.38
293.15 K	809.59
298.15 K	805.77
303.15 K	801.92
308.15 K	798.05
313.15 K	794.14
318.15 K	790.19
323.15 K	786.19
328.15 K	782.14
333.15 K	778.03

From the NIST ThermoML archive (doi:10.1016/j.fluid.2007.04.030)
